In ChEMBL document CHEMBL6115036, “Exploration of membrane-active cephalosporin derivatives as potent antibacterial agents against Staphylococcus aureus biofilms and persisters” (Eur J Med Chem, 2025):
The source made the active and inactive calls. The calls are words filed in the database; no cut-off is given here.

Columns and labels:
Enterococcus faecalis = assay: Antimicrobial activity against Enterococcus faecalis incubated for 16 to 18 hrs by broth dilution assay; type: functional; details: time 16-18 hrs
Staphylococcus aureus [1] = assay: Antimicrobial activity against Staphylococcus aureus incubated for 16 to 18 hrs by broth dilution assay; type: functional; details: time 16-18 hrs
[2] = system: Stenotrophomonas maltophilia; assay: Antimicrobial activity against Stenotrophomonas maltophilia incubated for 16 to 18 hrs by broth dilution assay; type: functional; details: time 16-18 hrs
Escherichia coli = assay: Antimicrobial activity against Escherichia coli incubated for 16 to 18 hrs by broth dilution assay; type: functional; details: time 16-18 hrs
[3] = Hemolytic activity in sheep red blood cells incubated for 1 hr; type: toxicity, cell-based, Ovis aries, Erythrocyte
Staphylococcus aureus [4] = assay: Induction of resistance development in Staphylococcus aureus assessed as fold increase in MIC at sub-MIC measured after 20 passages relative to control; type: functional
Staphylococcus aureus [5] = assay: Induction of resistance development in drug-resistant Staphylococcus aureus assessed as fold increase in MIC of rifampicin at sub-MIC measured after 20 passages relative to control; type: functional
Staphylococcus aureus [6] = assay: Induction of resistance development in drug-resistant Staphylococcus aureus assessed as fold increase in MIC of cefuroxime sodium at sub-MIC measured after 20 passages relative to control; type: functional
Staphylococcus aureus [7] = assay: Induction of resistance development in drug-resistant Staphylococcus aureus assessed as fold increase in MIC of ampicillin sodium at sub-MIC measured after 20 passages relative to control; type: functional
Staphylococcus aureus [8] = assay: Antibacterial activity against Staphylococcus aureus infected in Kunming mouse model of subcutaneous abscess assessed as surviving bacteria in skin tissue at 10 mg/kg, sc measured after 48 hrs relative to control; type: functional
Staphylococcus aureus [9] = assay: Antibacterial activity against Staphylococcus aureus infected in Kunming mouse model of subcutaneous abscess assessed as reduction in bacterial load in skin tissue at 10 mg/kg, sc measured after 48 hrs relative to control; type: functional; parameters: scale not given: the % may be the effect or the level left
Staphylococcus aureus [10] = assay: Antibacterial activity against Staphylococcus aureus infected in Kunming mouse model of subcutaneous abscess assessed as reduction in number of bacteria in skin tissue at 5 to 10 mg/kg, sc measured after 48 hrs; type: functional, organism-based; details: dose 5-10 mg/kg
Staphylococcus aureus [11] = assay: Inhibition of biofilm formation in Staphylococcus aureus assessed as reduction in number of live bacterial count at 16 times MIC incubated for 24 hrs; type: functional
Staphylococcus aureus [12] = assay: Inhibition of biofilm formation in Staphylococcus aureus at 16 times MIC incubated for 24 hrs; type: functional, organism-based
Staphylococcus aureus [13] = assay: Induction of cytoplasmic membrane depolarization in Staphylococcus aureus assessed as increase in fluorescence intensity at 32 ug/ml measured for 20 mins by DiSC3(5) dye based analysis; type: functional, organism-based; details: dose 32.0 µg/ml
Staphylococcus aureus [14] = assay: Induction of inner membrane permeability in Staphylococcus aureus assessed as increase in fluorescence intensity at 32 ug/ml measured for 20 mins by PI dye based analysis; type: functional, organism-based; details: dose 32.0 µg/ml
Staphylococcus aureus [15] = assay: Disruption of cell membrane in Staphylococcus aureus assessed as nucleic acid leakage measured after 2 hrs by fluorescence based analysis; type: functional, organism-based; details: dose 8-32 µg/ml
Staphylococcus aureus [16] = assay: Disruption of cell membrane in Staphylococcus aureus assessed as protein leakage measured after 2 hrs by fluorescence based analysis; type: functional, organism-based; details: dose 8-32 µg/ml
Staphylococcus aureus [17] = assay: Bactericidal activity against Staphylococcus aureus assessed as reduction in bacterial colony count at 4 to 8 times MIC incubated for 8 hrs by time kill assay; type: functional, organism-based
Staphylococcus aureus [18] = assay: Antibacterial activity against Staphylococcus aureus in presence of 50% sheep plasma; type: functional, organism-based
Staphylococcus aureus [19] = assay: Antibacterial activity against Staphylococcus aureus in presence of 50% FBS; type: functional, organism-based
Staphylococcus aureus [20] = assay: Bactericidal activity against Staphylococcus aureus measured for 3 to 6 hrs in presence of 50% sheep plasma; type: functional, organism-based; details: time 3-6 hrs
Staphylococcus aureus [21] = assay: Induction of resistance development in Staphylococcus aureus at sub-MIC measured after 20 passages; type: functional, organism-based
Staphylococcus aureus [22] = assay: Induction of resistance development in drug-resistant Staphylococcus aureus at sub-MIC measured after 20 passages in presence of norfloxacin; type: functional, organism-based
Staphylococcus aureus [23] = assay: Induction of resistance development in drug-resistant Staphylococcus aureus at sub-MIC measured after 20 passages in presence of ciprofloxacin; type: functional, organism-based
Staphylococcus aureus [24] = assay: Induction of resistance development in drug-resistant Staphylococcus aureus at sub-MIC measured after 20 passages in presence of levofloxacin; type: functional, organism-based
Staphylococcus aureus [25] = assay: Induction of resistance development in drug-resistant Staphylococcus aureus at sub-MIC measured after 20 passages in presence of linezolid; type: functional, organism-based
Staphylococcus aureus [26] = assay: Induction of resistance development in drug-resistant Staphylococcus aureus at sub-MIC measured after 20 passages in presence of rifampicin; type: functional, organism-based
Staphylococcus aureus [27] = assay: Induction of resistance development in drug-resistant Staphylococcus aureus at sub-MIC measured after 20 passages in presence of vancomycin; type: functional, organism-based
Staphylococcus aureus [28] = assay: Induction of resistance development in drug-resistant Staphylococcus aureus at sub-MIC measured after 20 passages in presence of cefuroxime sodium; type: functional, organism-based
Staphylococcus aureus [29] = assay: Induction of resistance development in drug-resistant Staphylococcus aureus at sub-MIC measured after 20 passages in presence of ampicillin sodium; type: functional, organism-based
Staphylococcus aureus [30] = assay: Inhibition of metabolic activity in Staphylococcus aureus incubated for 6 hrs by Alamar blue assay; type: functional, organism-based
Staphylococcus aureus [31] = assay: Induction of intracellular ROS accumulation in Staphylococcus aureus incubated overnight by DCFH-DA dye based analysis; type: functional, organism-based
Staphylococcus aureus [32] = assay: Antibacterial activity against Staphylococcus aureus assessed as inhibition of bacterial growth at stationary phase at 32 times MIC incubated for 4 hrs; type: functional, organism-based
Staphylococcus aureus [33] = assay: Antibacterial activity against rifampicin-induced persistant Staphylococcus aureus assessed as decrease in CFU at 16 times MIC measured for 10 hrs; type: functional
Staphylococcus aureus [34] = assay: Bactericidal activity against rifampicin-induced persistant Staphylococcus aureus at 32 times MIC measured for 10 hrs; type: functional, organism-based
Staphylococcus aureus [35] = assay: Inhibition of biofilm formation in Staphylococcus aureus assessed as decrease in bacterial count at 32 times MIC incubated for 24 hrs by CLSM analysis; type: functional, organism-based
Staphylococcus aureus [36] = assay: Inhibition of biofilm formation in Staphylococcus aureus assessed as punctate distribution at 32 times MIC incubated for 24 hrs by CLSM analysis; type: functional, organism-based
[37] = Cytotoxicity against human HeLa cells incubated for 24 hrs by CCK8 assay; type: toxicity, cell-based
[38] = Cytotoxicity against HUVEC cells incubated for 24 hrs by CCK8 assay; type: toxicity, cell-based; details: human
Staphylococcus aureus [39] = assay: Antibacterial activity against Staphylococcus aureus infected in Kunming mouse model of subcutaneous abscess assessed as decrease in neutrophil level in skin tissue at 5 mg/kg, sc measured after 48 hrs by H and E staining based analysis; type: functional, organism-based
Staphylococcus aureus [40] = assay: Antibacterial activity against Staphylococcus aureus infected in Kunming mouse model of subcutaneous abscess assessed as decrease in inflammation in skin tissue at 5 mg/kg, sc measured after 48 hrs by H and E staining based analysis; type: functional, organism-based
[41] = Toxicity in Kunming mouse model of subcutaneous abscess infected with Staphylococcus aureus assessed as damage in heart at 5 to 10 mg/kg, sc measured after 48 hrs by H and E staining based analysis; type: organism-based; details: in vivo, dose 5-10 mg/kg
[42] = Toxicity in Kunming mouse model of subcutaneous abscess infected with Staphylococcus aureus assessed as damage in liver at 5 to 10 mg/kg, sc measured after 48 hrs by H and E staining based analysis; type: organism-based; details: in vivo, dose 5-10 mg/kg
[43] = Toxicity in Kunming mouse model of subcutaneous abscess infected with Staphylococcus aureus assessed as damage in spleen at 5 to 10 mg/kg, sc measured after 48 hrs by H and E staining based analysis; type: organism-based; details: in vivo, dose 5-10 mg/kg
[44] = Toxicity in Kunming mouse model of subcutaneous abscess infected with Staphylococcus aureus assessed as damage in lung at 5 to 10 mg/kg, sc measured after 48 hrs by H and E staining based analysis; type: organism-based; details: in vivo, dose 5-10 mg/kg
[45] = Toxicity in Kunming mouse model of subcutaneous abscess infected with Staphylococcus aureus assessed as damage in kidney at 5 to 10 mg/kg, sc measured after 48 hrs by H and E staining based analysis; type: organism-based; details: in vivo, dose 5-10 mg/kg
[46] = Toxicity in Kunming mouse model of subcutaneous abscess infected with Staphylococcus aureus assessed as histopathological abnormalities in heart at 5 to 10 mg/kg, sc measured after 48 hrs by H and E staining based analysis; type: organism-based; details: in vivo, dose 5-10 mg/kg
[47] = Toxicity in Kunming mouse model of subcutaneous abscess infected with Staphylococcus aureus assessed as histopathological abnormalities in liver at 5 to 10 mg/kg, sc measured after 48 hrs by H and E staining based analysis; type: organism-based; details: in vivo, dose 5-10 mg/kg
[48] = Toxicity in Kunming mouse model of subcutaneous abscess infected with Staphylococcus aureus assessed as histopathological abnormalities in spleen at 5 to 10 mg/kg, sc measured after 48 hrs by H and E staining based analysis; type: organism-based; details: in vivo, dose 5-10 mg/kg
[49] = Toxicity in Kunming mouse model of subcutaneous abscess infected with Staphylococcus aureus assessed as histopathological abnormalities in lung at 5 to 10 mg/kg, sc measured after 48 hrs by H and E staining based analysis; type: organism-based; details: in vivo, dose 5-10 mg/kg
[50] = Toxicity in Kunming mouse model of subcutaneous abscess infected with Staphylococcus aureus assessed as histopathological abnormalities in kidney at 5 to 10 mg/kg, sc measured after 48 hrs by H and E staining based analysis; type: organism-based; details: in vivo, dose 5-10 mg/kg

## O=C(Cc1ccccc1)N[C@@H]1C(=O)N2C(C(=O)O)=C(C[n+]3ccccc3)CS[C@H]12.[I-]
Enterococcus faecalis
  MIC: 16 µg/mL
Staphylococcus aureus [1]
  MIC: 0.063 µg/mL
[2]
  MIC: 64 µg/mL
Escherichia coli
  MIC: 32 µg/mL
[3]
  HC50 at 1 h: > 1280 µg/mL
Staphylococcus aureus [4]
  fold change (FC): 64
Staphylococcus aureus [5]
  fold change (FC): 8
Staphylococcus aureus [6]
  fold change (FC): >128
Staphylococcus aureus [7]
  fold change (FC): 64

## CCCCCCCCCCCCCCCC[n+]1ccc(-c2cc[n+](CC3=C(C(=O)[O-])N4C(=O)[C@@H](NC(=O)Cc5ccccc5)[C@H]4SC3)cc2)cc1.O=C([O-])C(F)(F)F
Staphylococcus aureus [8]
  Activity: 0.13%
Staphylococcus aureus [9]
  Activity: 99.87%
Staphylococcus aureus [10]
  Activity: Active
Staphylococcus aureus [11]
  Activity: ~1 10^8CFU/ml
Staphylococcus aureus [12]
  inhibition: Active; Compound Activity Better Than Vancomycin, Rifampicin And Cephalothin
Enterococcus faecalis
  MIC: 32 µg/mL
Staphylococcus aureus [1]
  MIC: 4 µg/mL
[2]
  MIC: 128 µg/mL
Escherichia coli
  MIC: 128 µg/mL
[3]
  HC50 at 1 h: 112 µg/mL
Staphylococcus aureus [13]
  Activity: Active
Staphylococcus aureus [14]
  Activity: Active
Staphylococcus aureus [15]
  Activity: Dose-dependent-effect
Staphylococcus aureus [16]
  Activity: Dose-dependent-effect
Staphylococcus aureus [17]
  Activity: Active
Staphylococcus aureus [18]
  Activity: Active; Mic Value Of Compound In Plasma Was Equal To Mic In Mhb Medium
Staphylococcus aureus [19]
  Activity: Active; Mic Value Of Compound In Serum Was Equal To Mic In Mhb Medium
Staphylococcus aureus [20]
  Activity: Active
Staphylococcus aureus [21]
  Activity: inactive
Staphylococcus aureus [22]
  Activity: inactive
Staphylococcus aureus [23]
  Activity: inactive
Staphylococcus aureus [24]
  Activity: inactive
Staphylococcus aureus [25]
  Activity: inactive
Staphylococcus aureus [26]
  Activity: inactive
Staphylococcus aureus [27]
  Activity: inactive
Staphylococcus aureus [28]
  Activity: inactive
Staphylococcus aureus [29]
  Activity: inactive
Staphylococcus aureus [30]
  inhibition: Dose-dependent-effect
Staphylococcus aureus [31]
  Activity: Dose-dependent-effect
Staphylococcus aureus [32]
  inhibition: Active
Staphylococcus aureus [33]
  Activity: ~1 10^5CFU/ml
Staphylococcus aureus [34]
  Activity: Active
Staphylococcus aureus [35]
  inhibition: Active
Staphylococcus aureus [36]
  inhibition: Active
[37]
  CC50 at 24 h: 34.7 µg/mL
[38]
  CC50 at 24 h: 15.7 µg/mL
Staphylococcus aureus [39]
  Activity: Active
Staphylococcus aureus [40]
  Activity: Active
[41]
  Activity: Non-toxic
[42]
  Activity: Non-toxic
[43]
  Activity: Non-toxic
[44]
  Activity: Non-toxic
[45]
  Activity: Non-toxic
[46]
  Activity: Non-toxic
[47]
  Activity: Non-toxic
[48]
  Activity: Non-toxic
[49]
  Activity: Non-toxic
[50]
  Activity: Non-toxic
